Holding throughout (assay type): biochemical
One assay deals with AKT (Homo sapiens, UniProt P31749). Nature of the assay: RBC HotSpot kinase assay (33P-ATP, P81 filter-binding), AKT. The conditions noted are these: Table 28, biochemical kinase assay; read-out: AKT IC50. A digest of the protocol: (§1)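 Substrate in fresh buffer receives cofactors, then kinase, then compound in DMSO for a 20 min room-temperature preincubation. Reactions start with 33P-ATP and run 2 h; phosphorylation is read by P81 filter binding, and IC50 comes from a 10-point curve.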
Sequence of AKT (P31749 whole entry): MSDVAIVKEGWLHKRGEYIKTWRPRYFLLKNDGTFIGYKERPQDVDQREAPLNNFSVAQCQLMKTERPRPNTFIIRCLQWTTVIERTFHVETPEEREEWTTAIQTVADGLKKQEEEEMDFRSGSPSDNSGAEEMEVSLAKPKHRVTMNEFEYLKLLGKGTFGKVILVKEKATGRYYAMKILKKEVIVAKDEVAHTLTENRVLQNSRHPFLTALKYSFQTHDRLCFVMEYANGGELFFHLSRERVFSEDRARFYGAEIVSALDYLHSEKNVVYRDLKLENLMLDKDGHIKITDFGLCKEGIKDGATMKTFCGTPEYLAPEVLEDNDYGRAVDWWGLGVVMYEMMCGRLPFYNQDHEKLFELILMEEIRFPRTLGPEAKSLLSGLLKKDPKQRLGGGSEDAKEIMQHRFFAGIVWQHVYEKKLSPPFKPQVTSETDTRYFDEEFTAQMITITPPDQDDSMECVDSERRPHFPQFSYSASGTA

Another assay addresses T1, LATS2 (Homo sapiens, UniProt Q9NRM7).
T1 sequence (Q9NRM7 1-1088): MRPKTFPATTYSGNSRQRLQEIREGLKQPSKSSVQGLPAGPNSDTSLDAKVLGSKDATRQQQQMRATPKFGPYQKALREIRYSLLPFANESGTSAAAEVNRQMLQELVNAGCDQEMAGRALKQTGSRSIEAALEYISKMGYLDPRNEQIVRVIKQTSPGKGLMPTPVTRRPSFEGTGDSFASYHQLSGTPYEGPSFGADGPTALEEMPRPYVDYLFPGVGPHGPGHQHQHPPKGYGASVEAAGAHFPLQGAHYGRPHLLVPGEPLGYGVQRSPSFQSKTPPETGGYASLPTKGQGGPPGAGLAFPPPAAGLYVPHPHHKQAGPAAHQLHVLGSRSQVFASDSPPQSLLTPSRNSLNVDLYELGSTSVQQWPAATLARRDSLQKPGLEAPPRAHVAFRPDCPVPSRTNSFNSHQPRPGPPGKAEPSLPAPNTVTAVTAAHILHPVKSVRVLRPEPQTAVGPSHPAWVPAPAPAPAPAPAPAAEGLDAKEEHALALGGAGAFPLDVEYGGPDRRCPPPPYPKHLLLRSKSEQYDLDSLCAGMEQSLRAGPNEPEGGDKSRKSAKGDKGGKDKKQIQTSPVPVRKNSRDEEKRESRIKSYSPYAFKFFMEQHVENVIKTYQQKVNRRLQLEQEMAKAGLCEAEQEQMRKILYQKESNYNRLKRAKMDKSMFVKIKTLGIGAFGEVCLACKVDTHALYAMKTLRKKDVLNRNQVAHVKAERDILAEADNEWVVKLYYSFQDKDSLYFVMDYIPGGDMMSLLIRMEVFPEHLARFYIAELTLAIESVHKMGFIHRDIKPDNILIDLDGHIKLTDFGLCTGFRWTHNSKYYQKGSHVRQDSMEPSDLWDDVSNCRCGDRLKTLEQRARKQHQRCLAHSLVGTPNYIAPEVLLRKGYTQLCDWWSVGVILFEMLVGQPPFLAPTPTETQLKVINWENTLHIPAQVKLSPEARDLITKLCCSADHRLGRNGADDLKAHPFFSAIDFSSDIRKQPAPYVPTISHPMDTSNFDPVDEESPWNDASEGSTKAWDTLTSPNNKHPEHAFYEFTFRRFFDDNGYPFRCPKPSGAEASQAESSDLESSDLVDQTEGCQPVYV
Briefly: RBC HotSpot kinase assay (33P-ATP, P81 filter-binding), LATS2. The conditions noted are these: Table 28, biochemical kinase assay; read-out: LATS2 IC50. A digest of the protocol: as §1

The target in the next assay is T2, LATS1 (Homo sapiens, UniProt O95835).
T2 sequence (O95835 1-1130): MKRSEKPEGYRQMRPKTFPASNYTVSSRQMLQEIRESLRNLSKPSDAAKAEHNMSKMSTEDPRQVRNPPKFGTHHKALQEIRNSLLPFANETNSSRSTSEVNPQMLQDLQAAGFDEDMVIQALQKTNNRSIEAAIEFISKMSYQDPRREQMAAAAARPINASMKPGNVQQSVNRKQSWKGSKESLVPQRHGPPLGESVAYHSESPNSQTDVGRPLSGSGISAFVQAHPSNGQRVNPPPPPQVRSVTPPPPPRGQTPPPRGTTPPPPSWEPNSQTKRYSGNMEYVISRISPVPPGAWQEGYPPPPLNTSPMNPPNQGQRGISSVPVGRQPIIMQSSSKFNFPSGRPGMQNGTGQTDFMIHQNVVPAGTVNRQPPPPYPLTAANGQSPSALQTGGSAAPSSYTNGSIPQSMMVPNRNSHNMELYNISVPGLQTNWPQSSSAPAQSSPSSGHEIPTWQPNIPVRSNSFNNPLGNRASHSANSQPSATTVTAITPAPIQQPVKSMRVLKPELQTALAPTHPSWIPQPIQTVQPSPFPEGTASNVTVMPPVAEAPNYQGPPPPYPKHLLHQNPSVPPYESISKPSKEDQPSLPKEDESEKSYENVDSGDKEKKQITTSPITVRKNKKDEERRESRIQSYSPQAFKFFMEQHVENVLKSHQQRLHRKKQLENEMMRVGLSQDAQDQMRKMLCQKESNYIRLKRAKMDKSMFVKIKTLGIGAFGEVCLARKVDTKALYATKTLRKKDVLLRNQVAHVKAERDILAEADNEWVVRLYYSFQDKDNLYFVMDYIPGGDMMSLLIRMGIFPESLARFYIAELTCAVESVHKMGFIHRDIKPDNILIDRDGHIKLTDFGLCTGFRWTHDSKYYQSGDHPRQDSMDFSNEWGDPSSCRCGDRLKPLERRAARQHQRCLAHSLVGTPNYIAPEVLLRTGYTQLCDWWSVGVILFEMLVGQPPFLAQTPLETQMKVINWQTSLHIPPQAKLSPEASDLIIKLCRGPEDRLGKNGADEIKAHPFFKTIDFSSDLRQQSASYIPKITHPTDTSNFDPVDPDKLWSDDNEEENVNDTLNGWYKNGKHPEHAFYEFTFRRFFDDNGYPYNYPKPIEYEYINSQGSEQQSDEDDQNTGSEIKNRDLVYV
Briefly: RBC HotSpot kinase assay (33P-ATP, P81 filter-binding), LATS1. The conditions noted are these: Table 28, biochemical kinase assay; read-out: LATS1 IC50. A digest of the protocol:
as §1

A word on the IC50: it is the midpoint of a concentration-inhibition curve. For the compound `C[C@@H]1CN(C(=O)[C@@H]2COCCN2)C[C@H](C)C1(O)c1c(F)cc(-c2ccnc3[nH]cc(F)c23)cc1F` (stereo partly drawn) [Compound 81, ((3S,5R)-4-(2,6-difluoro-4-(3-fluoro-1H-pyrrolo[2,3-b]pyridin-4-yl)phenyl)-4-hydroxy-3,5-dimethylpiperidin-1-yl)((S)-morpholin-3-yl)methanone], the results for the IC50 on AKT, on LATS2 and on LATS1 were 1020 nM, 22.4 nM and 24.1 nM, respectively.

As for `C[C@H](N)C(=O)N1C[C@@H](C)C(O)(c2c(F)cc(-c3ccnc4[nH]cc(F)c34)cc2F)[C@@H](C)C1` (stereo partly drawn) [Compound 82, (2S)-2-amino-1-((3S,5R)-4-(2,6-difluoro-4-(3-fluoro-1H-pyrrolo[2,3-b]pyridin-4-yl)phenyl)-4-hydroxy-3,5-dimethylpiperidin-1-yl)propan-1-one], the results for the concentration for half-maximal inhibition (IC50) at AKT, at LATS2 and on LATS1 were 506 nM, 14.2 nM and 14.5 nM, respectively.

In the case of `CNCC(=O)N1C[C@@H](C)C(O)(c2c(F)cc(-c3ccnc4[nH]cc(F)c34)cc2F)[C@@H](C)C1` (stereo partly drawn) [Compound 83, 1-((3S,5R)-4-(2,6-difluoro-4-(3-fluoro-1H-pyrrolo[2,3-b]pyridin-4-yl)phenyl)-4-hydroxy-3,5-dimethylpiperidin-1-yl)-2-(methylamino) ethan-1-one], the half-inhibitory concentration (IC50) was found to be 570 nM at AKT, 21.3 nM on LATS2 and 25 nM on LATS1.

In the case of `C[C@@H]1CN(C(=O)[C@@H]2CCCN2)C[C@H](C)C1(O)c1c(F)cc(-c2ccnc3[nH]cc(F)c23)cc1F` (stereo partly drawn) [Compound 84, 4-(4-((3S,5R)-1-(L-prolyl)-4-hydroxy-3,5-dimethylpiperidin-4-yl)-3,5-difluorophenyl)-3-fluoro-1H-pyrrolo[2,3-b]pyridine], the IC50 at AKT was found to be 1470 nM; on LATS2 it was 10.3 nM; at LATS1, 21.6 nM.

In the case of `C[C@@H]1CN(C(=O)[C@H]2CCCN2)C[C@H](C)C1(O)c1c(F)cc(-c2ccnc3[nH]cc(F)c23)cc1F` (stereo partly drawn) [Compound 85, 4-(4-((3S,5R)-1-(D-prolyl)-4-hydroxy-3,5-dimethylpiperidin-4-yl)-3,5-difluorophenyl)-3-fluoro-1H-pyrrolo[2,3-b]pyridine], the IC50 amounted to 659 nM at AKT, 4.7 nM at LATS2 and 5.8 nM at LATS1.

Take `C[C@@H]1CN(C(=O)[C@@H](C)N)C[C@H](C)C1(O)c1c(F)cc(-c2ccnc3[nH]cc(F)c23)cc1F` (stereo partly drawn) [Compound 86, (2R)-2-amino-1-((3S,5R)-4-(2,6-difluoro-4-(3-fluoro-1H-pyrrolo[2,3-b]pyridin-4-yl)phenyl)-4-hydroxy-3,5-dimethylpiperidin-1-yl)propan-1-one]: the IC50 at AKT amounted to 691 nM; on LATS2 it was 6.5 nM; on LATS1, 20.3 nM.

For the compound `C[C@@H]1CN(C(=O)CN)C[C@H](C)C1(O)c1cnc(-c2ccnc3[nH]cc(F)c23)cc1F` (stereo partly drawn) [Compound 87, 2-amino-1-((3S,5R)-4-(4-fluoro-6-(3-fluoro-1H-pyrrolo[2,3-b]pyridin-4-yl)pyridin-3-yl)-4-hydroxy-3,5-dimethylpiperidin-1-yl)ethan-1-one], the IC50 on AKT amounted to 4010 nM; at LATS2 it was 47.3 nM; on LATS1 it was 48 nM.

For the compound `C[C@@H]1CN(C2CC3(CNC3)C2)C[C@H](C)[C@@]1(O)c1c(F)cc(-c2ccnc3[nH]cc(F)c23)cc1F` [Compound 89, (3R,4s,5S)-4-(2,6-difluoro-4-(3-fluoro-1H-pyrrolo[2,3-b]pyridin-4-yl)phenyl)-3,5-dimethyl-1-(2-azaspiro[3.3]heptan-6-yl)piperidin-4-ol], the IC50 on AKT was determined as 68 nM; on LATS2 it was 3.8 nM; at LATS1, 3.7 nM.

As to `Cc1cc(-c2ccnc3[nH]cc(F)c23)cc(F)c1[C@@]1(O)[C@H](C)CN(C2CCNCC2)C[C@@H]1C` [Compound 91, (3S,4s,5R)-4-(2-fluoro-4-(3-fluoro-1H-pyrrolo[2,3-b]pyridin-4-yl)-6-methylphenyl)-3,5-dimethyl-[1,4′-bipiperidin]-4-ol], the IC50 at AKT came to 179 nM; on LATS2 it was 4.2 nM; on LATS1 it was 7.9 nM.

Regarding `C[C@@H]1CN(Cc2ccccc2)C[C@H](C)[C@@]1(O)c1c(F)cc(-c2ccnc3[nH]cc(F)c23)cc1F` [Compound 93, (3S,4s,5R)-1-benzyl-4-(2,6-difluoro-4-(3-fluoro-1H-pyrrolo[2,3-b]pyridin-4-yl)phenyl)-3,5-dimethylpiperidin-4-ol], the IC50 was determined as 2090 nM at AKT, 7.7 nM at LATS2 and 10.6 nM at LATS1.

As for `CC(=O)N1C[C@@H](C)[C@](O)(c2c(F)cc(-c3ccnc4[nH]cc(F)c34)cc2F)[C@@H](C)C1` [Compound 94, 1-((3S,4s,5R)-4-(2,6-difluoro-4-(3-fluoro-1H-pyrrolo[2,3-b]pyridin-4-yl)phenyl)-4-hydroxy-3,5-dimethylpiperidin-1-yl)ethan-1-one], the IC50 at AKT was determined as 4750 nM; on LATS2, 29.4 nM; at LATS1 it was 17.8 nM.

As for `CC(=O)N1C[C@@H](C)[C@](O)(c2c(C)cc(-c3ccnc4[nH]cc(F)c34)cc2F)[C@@H](C)C1` [Compound 95, 1-((3S,5R)-4-(2-fluoro-4-(3-fluoro-1H-pyrrolo[2,3-b]pyridin-4-yl)-6-methylphenyl)-4-hydroxy-3,5-dimethylpiperidin-1-yl)ethan-1-one], the IC50 on AKT was found to be 2620 nM; at LATS2, 4.8 nM; on LATS1, 6.9 nM.

Regarding `OC1(c2ccc(-c3ccnc4[nH]cc(F)c34)cc2Cl)CCN2CCCC2C1` (stereo not drawn) [Compound 96, 7-(2-chloro-4-(3-fluoro-1H-pyrrolo[2,3-b]pyridin-4-yl)phenyl)octahydroindolizin-7-ol], the figures for the IC50 on AKT, on LATS2 and at LATS1 were 771 nM, 17.9 nM and 17 nM, respectively.

Regarding `OC1(c2ccc(-c3ccnc4[nH]cc(F)c34)cc2Cl)CCNCC1` [Compound 97, 4-(2-chloro-4-(3-fluoro-1H-pyrrolo[2,3-b]pyridin-4-yl)phenyl)piperidin-4-ol], the figures for the IC50 on AKT, on LATS2 and on LATS1 were 712 nM, 42.8 nM and 11.4 nM, respectively.

Take `CC1CC(O)(c2ccc(-c3ccnc4[nH]cc(F)c34)cc2Cl)CCN1` (stereo not drawn) [Compound 98, 4-(2-chloro-4-(3-fluoro-1H-pyrrolo[2,3-b]pyridin-4-yl)phenyl)-2-methylpiperidin-4-ol]: the half-inhibitory concentration (IC50) at AKT was 383 nM; at LATS2, 37 nM; at LATS1, 24 nM.
